# Measured values taken from US20260013442A1, “METHOD FOR VEGETATIVE PROPAGATION OF PLANTS” (LETAVIS AB, priority 2020, published 2026).
# Key:
# [1] = tested on: cuttings from rose No. 1 (garden rose bush); assay: Callus/root formation on cuttings from rose No. 1 in oxytocin solution; assay type: in vivo; details: for Grading of callus formation: grading 0-8
# Procedure: (§1) Cuttings, about 7 cm long, from the top of a branch of two different roses (rose No. 1 and rose No. 2) and cut directly under a node were put into 100 ml Erlenmeyer flasks with concentrations of oxytocin from 0 to 10 μM (0, 0.5, 1, 2.5, 5 and 10 μM) in tap water. Two cuttings were added to each Erlenmeyer flask. Thereafter, the Erlenmeyer flasks were placed in a growing room under a light intensity of 800 μmol*m^−2*s^−1.
# Cuttings in this experiment were taken from a garden rose bush. […] A grading of the effect of different oxytocin concentrations on the formation of callus from the cuttings can be seen in Table 1. Callus can easily be explained as an accumulation of cells that has not developed into any specific tissue, such as root tissues. Best coverage of callus on the cutting surface of the cuttings was obtained at a concentration of oxytocin of 2.5 μM (FIG. 1).
# [2] = tested on: cuttings from rose No. 2 (mini rose); assay: Callus/root formation on cuttings from rose No. 2 in oxytocin solution; assay type: in vivo; details: for Grading of callus formation: grading 0-8
# Procedure: as §1
# Cuttings in this experiment was taken from the small rose bushes in pot bought in a flower shop (mini rose), and put into Erlenmeyer flasks. […] Best effect was obtained at 10 μM oxytocin, followed closely by 2.5 μM oxytocin.
# Vigorous development of callus indicates high potential for root formation. To study this effect, the Erlenmeyer flasks with the cuttings from the experiment with rose No. 2 have been covered with aluminium foil.
# [3] = tested on: cut flowers of roses of the variety Furiosa; assay: Root growth of stalks of cut flowers of the variety Furiosa; assay type: in vivo, rose
# Procedure: Cut flowers of roses of the variety Furiosa, which had obtained at least 2 side shoots from the stalk, were put in water to allow the side shoots to continue to grow. When the side shoots had reached a length of about 5 cm, the stalk was cut by some mm under the lowest side shoot, which was also removed from the stalk. The stalks were then put into 100 ml Erlenmeyer flasks with either water alone or an oxytocin solution. The solution contained either 1, 4 or 8 μM oxytocin. The liquid in the Erlenmeyer flasks was darkened by coating the flasks with aluminium foil. The flasks were placed in daylight.
# cuttings from hibiscuses = assay: Effect of oxytocin on cuttings of hibiscus; assay type: in vivo; details: 90 days
# Source text: […] Five cuttings per treatment were used.
# The flasks were covered with aluminum foil and the flasks were kept at room temperature in a window.
# The experiment was allowed to run for 90 days whereafter the development of calluses and roots was documented.
# rose cuttings = assay: Effect of different concentrations of oxytocin on cuttings of roses (58 days); assay type: in vivo; details: for Total No. roots: 4 E-flasks with 2 cuttings; for Number of cuttings with roots / Number of living cuttings / Per cutting No. roots / Per cutting Number of side shoots >10 mm / Per cutting mm root / Vitality: n = 8; for Vitality: grading 0-5
# Procedure: On Feb. 11, 2020, cuttings from purchased pots with roses were put into 100 ml Erlenmeyer flasks (E-flasks) with a concentration of oxytocin from 0 to 50 μM (0, 0.5, 1, 5, 10, 20 and 50 μM). The experiment consisted of four E-flasks per concentration with two cuttings in each E-flask. The E-flasks were covered with aluminum foil and placed in a culture room. From day 45, measurements were made every 4-5 days. At day 58, the trial was interrupted.
# [4] = tested on: potato tubers of the summer variety Perlo; assay: Potato tubers treated with oxytocin before pre-sprouting in sunlight; assay type: in vivo; details: nineteen days of pre-sprouting
# Procedure: Potato tubers of the summer variety Perlo were pre-sprouting in sunlight after treatment with either tap water, 1 μM oxytocin or 10 μm oxytocin for 6 or 24 hours. For each treatment, 8 tubers were treated by placing them in plastic vessels and covered them with the respective test solution. After treatment, the tubers were pre-sprouted in sunlight at about 20° C. Nineteen days later, the number of sprouts were counted for each tuber and the length per sprout was measured.
# [5] = 5 μM oxytocin, 31 days, 2 cuttings
substance,measurement,setting,value
oxytocin,Grading of callus formation,"[1]; 0.5 μM oxytocin, 31 days, 2 cuttings",6
same,Grading of callus formation,"[1]; 1 μM oxytocin, 31 days, 2 cuttings",4
same,Grading of callus formation,"[1]; 2.5 μM oxytocin, 31 days, 2 cuttings",7
same,small roots formed,[1]; [5],one
same,Grading of callus formation,[1]; [5],6
same,length of root developed from callus,"[1]; 5 μM oxytocin, one of the two cuttings",2-3 mm
same,Grading of callus formation,"[1]; 10 μM oxytocin, 31 days, 2 cuttings",5
same,leaf aging,[1]; 5-10 μM oxytocin,inhibit leaf aging
same,concentration with best coverage of callus on the cutting surface,"[1]; 31 days, tested 0-10 μM",2.5 µM
same,Grading of callus formation,"[2]; 0.5 μM oxytocin, 24 days, 2 cuttings",2
same,root formation,"[2]; 0.5 μM oxytocin, nineteen days after day 24, flasks covered with aluminium foil",roots had been formed in all treatments except in 0.5 μM oxytocin
same,Grading of callus formation,"[2]; 1 μM oxytocin, 24 days, 2 cuttings",3
same,Grading of callus formation,"[2]; 2.5 μM oxytocin, 24 days, 2 cuttings",6
same,Grading of callus formation,"[2]; 5 μM oxytocin, 24 days, 2 cuttings",1
same,cuttings showing root development,"[2]; 5 μM oxytocin, nineteen days after day 24, 2 cuttings",one of the two cuttings
same,Grading of callus formation,"[2]; 10 μM oxytocin, 24 days, 2 cuttings",7
same,development of roots from cuttings,[2]; 1-10 μM oxytocin,stimulated the development of roots
same,root development,"[2]; 2.5 and 10 μM oxytocin, nineteen days after day 24",Root development was best
same,leaf aging,[2]; 5-10 μM oxytocin,inhibit leaf aging
same,concentration with best effect on development of callus,"[2]; 24 days, tested 0-10 μM",10 µM
same,root quality of stalk,"[3]; 1 μM oxytocin, one month after the 2.5 months",showed the best root
same,survival of stalks,"[3]; 4 μM oxytocin, one month after the 2.5 months, secondary fungal growth",had died due to a secondary fungal growth
same,root formation on stalks,"[3]; 1, 4 or 8 μM oxytocin, after about 2.5 months, untreated had died",obtained roots
same,root growth on stalks,"[3]; 1 and 8 μM oxytocin, one month after the 2.5 months",roots had grown much longer
same,Number of cuttings that had developed calluses,"cuttings from hibiscuses; 1 μM oxytocin, five cuttings",One
same,Number of cuttings that had developed a root,"cuttings from hibiscuses; 5 μM oxytocin, five cuttings",one
same,Number of cuttings that had developed calluses,"cuttings from hibiscuses; 5 μM oxytocin, five cuttings",One
same,root length,"cuttings from hibiscuses; 5 μM oxytocin, one cutting",~2 mm
same,Number of cuttings that had developed calluses,"cuttings from hibiscuses; 10 μM oxytocin, five cuttings",two
same,Root length Mean length,"rose cuttings; 0.5 μM oxytocin, 58 days",13.3 mm
same,Total No. roots,"rose cuttings; 0.5 μM oxytocin, 58 days",26
same,Number of cuttings with roots,"rose cuttings; 0.5 μM oxytocin, 58 days",5
same,Number of living cuttings,"rose cuttings; 0.5 μM oxytocin, 58 days",7
same,Per cutting No. roots,"rose cuttings; 0.5 μM oxytocin, 58 days",3.3
same,Per cutting Number of side shoots >10 mm,"rose cuttings; 0.5 μM oxytocin, 58 days",0.4
same,Per cutting mm root,"rose cuttings; 0.5 μM oxytocin, 58 days",43 mm
same,Vitality,"rose cuttings; 0.5 μM oxytocin, 58 days",2.6
same,Root length Mean length,"rose cuttings; 1 μM oxytocin, 58 days",17.4 mm
same,Total No. roots,"rose cuttings; 1 μM oxytocin, 58 days",55
same,Number of cuttings with roots,"rose cuttings; 1 μM oxytocin, 58 days",6
same,Number of living cuttings,"rose cuttings; 1 μM oxytocin, 58 days",8
same,Per cutting No. roots,"rose cuttings; 1 μM oxytocin, 58 days",6.9
same,Per cutting Number of side shoots >10 mm,"rose cuttings; 1 μM oxytocin, 58 days",1
same,Per cutting mm root,"rose cuttings; 1 μM oxytocin, 58 days",119 mm
same,Vitality,"rose cuttings; 1 μM oxytocin, 58 days",3.5
same,time after which all cuttings had developed roots,rose cuttings; 5 μM oxytocin,50 days
same,Root length Mean length,"rose cuttings; 5 μM oxytocin, 58 days",11.6 mm
same,Total No. roots,"rose cuttings; 5 μM oxytocin, 58 days",51
same,Number of cuttings with roots,"rose cuttings; 5 μM oxytocin, 58 days",7
same,Number of living cuttings,"rose cuttings; 5 μM oxytocin, 58 days",7
same,Per cutting No. roots,"rose cuttings; 5 μM oxytocin, 58 days",6.4
same,Per cutting Number of side shoots >10 mm,"rose cuttings; 5 μM oxytocin, 58 days",0.6
same,Per cutting mm root,"rose cuttings; 5 μM oxytocin, 58 days",76 mm
same,Vitality,"rose cuttings; 5 μM oxytocin, 58 days",2.5
same,cuttings that had developed roots,"rose cuttings; 5 μM oxytocin, day 45",five out of seven
same,"delay until all cuttings had roots, compared with 5 μM oxytocin",rose cuttings; 10 μM and 50 μM oxytocin,4 to 8 days
same,Root length Mean length,"rose cuttings; 10 μM oxytocin, 58 days",11.4 mm
same,Total No. roots,"rose cuttings; 10 μM oxytocin, 58 days",46
same,Number of cuttings with roots,"rose cuttings; 10 μM oxytocin, 58 days",7
same,Number of living cuttings,"rose cuttings; 10 μM oxytocin, 58 days",7
same,Per cutting No. roots,"rose cuttings; 10 μM oxytocin, 58 days",5.8
same,Per cutting Number of side shoots >10 mm,"rose cuttings; 10 μM oxytocin, 58 days",0.5
same,Per cutting mm root,"rose cuttings; 10 μM oxytocin, 58 days",66 mm
same,Vitality,"rose cuttings; 10 μM oxytocin, 58 days",2.9
same,Root length Mean length,"rose cuttings; 20 μM oxytocin, 58 days",12.7 mm
same,Total No. roots,"rose cuttings; 20 μM oxytocin, 58 days",46
same,Number of cuttings with roots,"rose cuttings; 20 μM oxytocin, 58 days",5
same,Number of living cuttings,"rose cuttings; 20 μM oxytocin, 58 days",6
same,Per cutting No. roots,"rose cuttings; 20 μM oxytocin, 58 days",5.8
same,Per cutting Number of side shoots >10 mm,"rose cuttings; 20 μM oxytocin, 58 days",0.5
same,Per cutting mm root,"rose cuttings; 20 μM oxytocin, 58 days",72 mm
same,Vitality,"rose cuttings; 20 μM oxytocin, 58 days",2.3
same,Root length Mean length,"rose cuttings; 50 μM oxytocin, 58 days",10.0 mm
same,Total No. roots,"rose cuttings; 50 μM oxytocin, 58 days",52
same,Number of cuttings with roots,"rose cuttings; 50 μM oxytocin, 58 days",8
same,Number of living cuttings,"rose cuttings; 50 μM oxytocin, 58 days",8
same,Per cutting No. roots,"rose cuttings; 50 μM oxytocin, 58 days",6.5
same,Per cutting Number of side shoots >10 mm,"rose cuttings; 50 μM oxytocin, 58 days",0.4
same,Per cutting mm root,"rose cuttings; 50 μM oxytocin, 58 days",65 mm
same,Vitality,"rose cuttings; 50 μM oxytocin, 58 days",3.5
same,cuttings that had developed callus,"rose cuttings; 50 μM oxytocin, day 45",all cuttings
same,cuttings that had calluses,"rose cuttings; 1, 5 and 10 μM oxytocin, day 45",all but one of the living cuttings
same,concentration giving most roots and longest total length of roots per cutting,rose cuttings; 6 cuttings per concentration (FIG. 7),1 µM
same,concentration most potent for callus and roots at nodes higher up on the stem,"rose cuttings; 58 days, tested 0-50 μM",20 µM
same,"total amount of roots formed, average over concentrations","rose cuttings; concentrations of 1 M and above, 58 days, compared to 30 at 0 μM",50.5 mm
same,percentage increase of long sprouts (over 5 mm) compared to tap water for 6 hours,[4]; 1 μM oxytocin for 6 hours,124%
same,percentage increase in number of shoots compared to tap water for 6 hours,[4]; 1 μM oxytocin for 24 hours,34.6%
same,percentage increase of long sprouts (over 5 mm) compared to tap water for 6 hours,[4]; 1 μM oxytocin for 24 hours,112.5%
same,percentage increase of long sprouts (over 5 mm) compared to tap water for 6 hours,[4]; 10 μM oxytocin for 6 hours,100%
same,percentage increase in number of shoots compared to tap water for 6 hours,[4]; 10 μM oxytocin for 24 hours,37.5%
